Here are results for 5 molecules from patent publication US9921215B2, “Method for detecting ligand using FRET biosensor” (KOREA RESEARCH INSTITUTE OF BIOSCIENCE AND BIOTECHNOLOGY, priority 2009, dated 2018).

Data set [1] has as its target T1, CaraFY-PR arabinose FRET biosensor: fusion protein ECFP-ARBP-EYFP of E. coli MG1655 ARBP (arabinose-binding protein) (Escherichia coli, UniProt P02924). The data set is described as follows: Ligand titration of FRET biosensor CaraFY-PR (arabinose sensor) at its critical temperature. Further details: 6xHis (C); made in house; host or cells: E. coli. The text has this: Likewise, in order to construct an expression vector of CaraFY-PR, a biosensor for measuring arabinose, ECFP gene was amplified by PCR using primers of SEQ ID NOs: 3 and 10, and ARBP gene was amplified by PCR using a chromosomal DNA, extracted from E. coli MG1655, as a template, and primers of SEQ ID NOs: 11 and 12.
The amplified ECFP and ARBP genes were amplified by PCR using primers of SEQ ID NOs: 3 and 12, thus obtaining a synthetic gene of ECFP-ARBP. The ECFP-ARBP gene was inserted into the ECFP-MBP gene position of the pECMY-BII expression vector, thereby constructing a pECaraFY-PR vector.
(§1) The fluorescence of the FRET biosensors was measured using the fluorescence analysis system Cary Eclipse (Varian Inc., Mulgrave, Australia) under the conditions in which the proteins of each biosensor were controlled to the same concentration of 0.5 μM in 0.5 ml of PBS buffer (pH 7.4). […]
(§2) Also, Δratio that defines the detection capability of the FRET biosensor was determined according to the following equation 4: Δratio=ratiomax−ratiomin [Equation 4]
(§3) The titration curves of the FRET biosensors were expressed as Sigmoidal curves using the 4-parameter Hill equation of Sigmaplot 10.0 (Systat software Inc., USA) based on changes in the ratio measured while increasing the ligand concentration from 1 nM to 10 mM. […]
Target sequence in this assay (P02924 other isoform, or with tags, fused parts or gaps): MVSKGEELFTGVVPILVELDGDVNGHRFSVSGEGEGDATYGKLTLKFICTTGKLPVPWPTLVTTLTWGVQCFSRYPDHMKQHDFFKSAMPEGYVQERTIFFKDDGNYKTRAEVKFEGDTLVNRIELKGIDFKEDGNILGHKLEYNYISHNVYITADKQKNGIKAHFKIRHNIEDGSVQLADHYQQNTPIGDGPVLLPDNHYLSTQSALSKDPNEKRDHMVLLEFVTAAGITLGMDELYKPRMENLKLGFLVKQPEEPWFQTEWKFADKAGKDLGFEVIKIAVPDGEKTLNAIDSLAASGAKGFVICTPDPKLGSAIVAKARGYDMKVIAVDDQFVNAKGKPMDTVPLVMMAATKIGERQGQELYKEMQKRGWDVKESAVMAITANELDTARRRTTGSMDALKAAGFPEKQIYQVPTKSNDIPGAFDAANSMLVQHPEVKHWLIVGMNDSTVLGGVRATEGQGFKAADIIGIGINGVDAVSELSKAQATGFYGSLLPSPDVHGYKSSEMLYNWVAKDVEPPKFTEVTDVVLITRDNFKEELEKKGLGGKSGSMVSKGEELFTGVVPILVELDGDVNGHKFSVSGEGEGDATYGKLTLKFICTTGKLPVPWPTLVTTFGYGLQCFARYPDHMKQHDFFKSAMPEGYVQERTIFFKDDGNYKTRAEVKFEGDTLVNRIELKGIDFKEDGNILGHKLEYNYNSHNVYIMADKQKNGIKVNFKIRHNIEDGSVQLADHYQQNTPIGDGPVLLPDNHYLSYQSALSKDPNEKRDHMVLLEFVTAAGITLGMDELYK

Data set [2] deals with T2, CmglBY-SS glucose FRET biosensor: fusion protein ECFP-GGBP-EYFP of E. coli MG1655 GGBP (galactose/glucose-binding protein) (Escherichia coli, UniProt P0AEE5). The data set is described as follows: Specificity of the glucose FRET biosensor for various sugars. The following applies: critical temperature 50 °C; ligand 100 μM, 1 mM, 10 mM. The procedure:
(§4) Analysis of the specificities of the FRET biosensors for various ligands was performed using 19 kinds of sugars, including monosaccharides, polyscaccharides and sugar alcohols.
(§5) To measure the specificities of the sensors, each of the purified FRET biosensors was added to 0.5 ml of PBS buffer (pH 7.4) at a concentration of 0.5 μM such that the concentration of each ligand reached 100 μM, 1 mM, 10 mM, etc. In 3 minutes after the peltier device surrounding the cuvette has reached each of the critical temperatures determined in Example 3, fluorescence was measured.
Target sequence in this assay (P0AEE5 24-332 limits assumed): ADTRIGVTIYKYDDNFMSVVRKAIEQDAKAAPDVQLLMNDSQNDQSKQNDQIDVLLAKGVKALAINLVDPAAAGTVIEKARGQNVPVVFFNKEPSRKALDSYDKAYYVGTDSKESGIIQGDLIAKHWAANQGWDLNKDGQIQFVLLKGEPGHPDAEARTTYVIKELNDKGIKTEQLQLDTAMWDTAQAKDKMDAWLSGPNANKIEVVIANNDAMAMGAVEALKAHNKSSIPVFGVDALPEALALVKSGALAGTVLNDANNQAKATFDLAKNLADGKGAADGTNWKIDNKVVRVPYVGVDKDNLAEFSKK

The target in data set [3] is T1, CaraFY-PR arabinose FRET biosensor: fusion protein ECFP-ARBP-EYFP of E. coli MG1655 ARBP (arabinose-binding protein). The data set is described as follows: Specificity of the arabinose FRET biosensor for various sugars. The note with it: critical temperature 49 °C; ligand 100 μM, 1 mM, 10 mM. On the procedure:
as §4, §5

The target in data set [4] is T2, CmglBY-SS glucose FRET biosensor: fusion protein ECFP-GGBP-EYFP of E. coli MG1655 GGBP (galactose/glucose-binding protein). The data set is described as follows: Ligand titration of FRET biosensor CmglBY-SS (glucose sensor) at its critical temperature. On the set-up: 6xHis (C); made in house; host or cells: E. coli.
Description: In addition, an expression vector of CmglBY-SS, a biosensor for measuring glucose used in the present invention, was constructed in the following manner.
First, ECFP gene was amplified by PCR using a pECFP vector as a template and a forward primer of SEQ ID NO: 3 together with a reverse primer of SEQ ID NO: 13 prepared to overlap with the nucleotide sequence of the N-terminus of GGBP. Likewise, GGBP gene was amplified by PCR using a chromosomal DNA, extracted from E. coli MG1655, as a template, and a forward primer of SEQ ID NO: 14 together with a reverse primer of SEQ ID NO: 15 containing a BamHI restriction sequence. […]
as §1, §2, §3
Target sequence in this assay (P0AEE5 24-332 with tags or gaps limits assumed): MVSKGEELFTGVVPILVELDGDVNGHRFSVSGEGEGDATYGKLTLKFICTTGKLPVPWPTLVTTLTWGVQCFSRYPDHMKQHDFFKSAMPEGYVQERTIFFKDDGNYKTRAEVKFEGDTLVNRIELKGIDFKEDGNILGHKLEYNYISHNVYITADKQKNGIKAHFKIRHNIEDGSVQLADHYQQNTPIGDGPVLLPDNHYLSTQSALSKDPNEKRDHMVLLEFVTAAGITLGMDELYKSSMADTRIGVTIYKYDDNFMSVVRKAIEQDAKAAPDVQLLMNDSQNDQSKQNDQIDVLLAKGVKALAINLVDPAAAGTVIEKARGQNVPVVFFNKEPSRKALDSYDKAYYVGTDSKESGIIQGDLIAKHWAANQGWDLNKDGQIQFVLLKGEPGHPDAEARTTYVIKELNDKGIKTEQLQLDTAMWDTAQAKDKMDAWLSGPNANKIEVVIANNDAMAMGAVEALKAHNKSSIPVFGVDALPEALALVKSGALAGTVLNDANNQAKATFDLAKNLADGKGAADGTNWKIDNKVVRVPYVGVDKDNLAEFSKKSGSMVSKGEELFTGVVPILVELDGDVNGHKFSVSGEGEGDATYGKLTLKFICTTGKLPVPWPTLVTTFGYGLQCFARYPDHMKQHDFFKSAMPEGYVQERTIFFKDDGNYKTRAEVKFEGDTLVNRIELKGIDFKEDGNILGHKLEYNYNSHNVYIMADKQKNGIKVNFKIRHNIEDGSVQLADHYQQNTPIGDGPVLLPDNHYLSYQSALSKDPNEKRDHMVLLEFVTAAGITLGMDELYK

The target of data set [5] is CalsBY-QV allose FRET biosensor: fusion protein ECFP-ALBP-EYFP of E. coli MG1655 ALBP (allose-binding protein) (Escherichia coli, UniProt P39265). The data set is described as follows: Specificity of the allose FRET biosensor for various sugars. The note with it: critical temperature 49 °C; ligand 100 μM, 1 mM, 10 mM; ribose compared with measurement at 25 °C in U.S. Pat. No. 7,432,353. On the procedure:
as §4, §5

The conditions of data set [6]: cited from earlier work.

CalsBY-QV allose FRET biosensor: fusion protein ECFP-ALBP-EYFP of E. coli MG1655 ALBP (allose-binding protein), sequence (P39265 24-311): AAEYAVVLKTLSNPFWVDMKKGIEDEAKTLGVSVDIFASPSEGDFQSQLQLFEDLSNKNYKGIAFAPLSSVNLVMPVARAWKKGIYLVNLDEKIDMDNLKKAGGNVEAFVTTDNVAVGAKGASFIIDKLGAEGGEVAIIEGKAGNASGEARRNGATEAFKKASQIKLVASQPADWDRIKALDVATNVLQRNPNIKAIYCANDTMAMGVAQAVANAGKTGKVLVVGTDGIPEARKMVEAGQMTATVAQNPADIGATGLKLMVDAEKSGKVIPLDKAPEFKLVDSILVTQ

Consider `OC1OC[C@H](O)[C@H](O)[C@H]1O` (stereo partly shown) [arabinose], for which the Kd in data set [1] amounted to 67 ± 4 µM.

As for `OC[C@H]1OC(O)[C@H](O)[C@@H](O)[C@H]1O` (stereo partly shown) [galactose], the affinity entry in data set [2] and in data set [3] was “very high affinity” each time.

`OC[C@H]1OC(O)[C@H](O)[C@@H](O)[C@@H]1O` (stereo partly shown) [glucose]: binding in data set [4] was characterised by a dissociation constant (Kd) of 9.2 ± 0.5 µM.

As for `OC1OC[C@@H](O)[C@@H](O)[C@H]1O` (stereo partly shown) [ribose], in data set [5], the “specificity for other sugars” value is “reduced specificity”.

B1: ARBP: E. coli periplasmic arabinose-binding protein (protein, UniProt P02924 24-329, looked up)
L-arabinose-binding …: ENLKLGFLVKQPEEPWFQTEWKFADKAGKDLGFEVIKIAVPDGEKTLNAIDSLAASGAKGFVICTPDPKLGSAIVAKARGYDMKVIAVDDQFVNAKGKPMDTVPLVMMAATKIGERQGQELYKEMQKRGWDVKESAVMAITANELDTARRRTTGSMDALKAAGFPEKQIYQVPTKSNDIPGAFDAANSMLVQHPEVKHWLIVGMNDSTVLGGVRATEGQGFKAADIIGIGINGVDAVSELSKAQATGFYGSLLPSPDVHGYKSSEMLYNWVAKDVEPPKFTEVTDVVLITRDNFKEELEKKGLGGK
In the case of B1, the “Unfolding temperature in the presence of ligand” value in data set [6] (1 mM arabinose (ARBP) / glucose (GGBP)) is 59 °C. In addition, the “Unfolding temperature in the absence of ligand” value in data set [6] (no arabinose (ARBP) / no glucose (GGBP)) was 53.5 °C.

Usually Kd stands for the equilibrium constant for the complex coming apart. High values mean lower affinity, low ones higher affinity.
